Measurements: US5281603A, “Angiotensin II receptor blocking 2,3,6 substituted quinazolinones” (American Cyanamid Company, priority 1993, dated 1994)

Molecular target: T1, Angiotensin II Receptor (Bos taurus, UniProt P25104)
T1 construct: The brownish tissue forming the adrenal cortex is scraped off and finely minced with scissors before homogenization; from tissue; host or cells: beef adrenal cortex, microsomal membranes (100,000×g pellet)
T1 sequence (P25104 1-359): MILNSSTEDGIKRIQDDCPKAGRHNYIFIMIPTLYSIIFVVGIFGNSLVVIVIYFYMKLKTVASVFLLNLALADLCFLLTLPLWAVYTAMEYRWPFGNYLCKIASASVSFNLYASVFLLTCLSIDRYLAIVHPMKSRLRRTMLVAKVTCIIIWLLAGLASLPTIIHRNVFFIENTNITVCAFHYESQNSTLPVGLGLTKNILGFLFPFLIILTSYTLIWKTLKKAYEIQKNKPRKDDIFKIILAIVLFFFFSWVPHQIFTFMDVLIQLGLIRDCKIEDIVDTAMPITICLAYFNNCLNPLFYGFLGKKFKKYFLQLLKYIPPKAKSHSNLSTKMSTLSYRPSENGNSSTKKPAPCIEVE
Test: Angiotensin II Receptor Binding: displacement of [^125 I](Sar^1,Ile^8)AngII from beef adrenal cortex membranes
Set-up: species or system beef (bovine)
Conditions: radioligand; non-specific binding with 1.0 uM unlabeled (Sar^1,Ile^8)AngII
Source text: Beef adrenals are obtained from a local slaughter house (Maxwell-Cohen). [^125 I](Sar^1,Ile^8)AngII, S.A. 2200 Ci/mmole, is purchased from Dupont (NEN®, Boston, Mass.). All unlabeled AngII analogs, Dimethylsulfoxide (DMSO), nucleotides, bovine serum albumin (BSA) are purchased from Sigma Chemical Co., St. Louis, Mo. U.S.A.
Approximately sixteen (16) to twenty (20) beef adrenal glands are processed as follows: fresh adrenal glands received on crushed ice are cleaned of fatty tissues and the tough membranes encapsulating the glands are removed and discarded. The brownish tissue forming the adrenal cortex is scraped off and finely minced with scissors before homogenization. Care is taken to avoid contamination with medullary tissue during dissection. The scraped cortices are suspended in twenty volumes of an ice-cold buffer medium consisting of 10 mM Tris.HCl (pH 7.4 at 22° C.) and containing 1.0 mM EDTA and 0.2M sucrose. Unless otherwise indicated, all subsequent operations are done at 4° C. […] The homogenate is centrifuged first at low speed (3,000×g) for 10 min. […] This P2 pellet is discarded and the liquid phase is carefully decanted off in clean centrifuge tubes and recentrifuged at high speed (100,000×g) for 60 min. The translucent final pellet is harvested and combined in a small volume (20-50.0 ml) of 50.0 mM Tris.HCl buffer, pH 7.2. […] The pelleted membrane is reconstituted in 50.0 mM Tris.HCl buffer containing 0.1 mM of phenylmethylsulfonyl fluoride (PMSF) to give approximately a protein concentration of 2.5 mg per ml of tissue suspension. The membrane preparation is finally aliquoted in 1.0 ml volumes and stored at -70° C. until use in the binding assays. […]
The wells are left undisturbed for 60 min. at room temperature. […] The filters are removed from the filter grid and counted in a Parkard® Cobra Gamma Counter for 1 min. […] The binding data are analyzed by the non-linear interactive "LUNDON-1" program (LUNDON SOFTWARE Inc., Cleveland, Ohio U.S.A.).

Specific binding: greater than 90%
Substance: [^125 I](Sar^1,Ile^8)AngII [reference compound]
